Here are results for three compounds from paper PMC10154516, “Potential profound fluctuation in tacrolimus concentration on consumption of pomegranate rind extract: A Pharmacokinetic Experiment” (Frontiers in Pharmacology, 2023).

One data set deals with T1, CYP3A4 (Homo sapiens, UniProt P08684).
T1 construct: purchased BioVision Inc. K702-200
Nature of the data set: CYP3A4 inhibitory in vitro assay (fluorometric inhibitor screening kit). Type of data set: biochemical. Conditions: for inhibition at 150 µM: Concentration 150 (unit inferred); for inhibition at 200 µM: Concentration 200 (unit inferred). The method, then: Briefly, incubations were conducted in a reaction volume of 200 μl/well in a 96-well microliter plate. For the calibration curve, resorufin (standard) was plotted by taking different concentrations (0, 4, 8, 12, 16, 20, 30, and 40 µl) of the 1 pmol/μl of the standard available in the kit. One mole of resorufin corresponds to the metabolism of 1 mol of the CYP3A4 substrate. […] The corresponding percentage inhibition due to the test ligand or positive inhibition control was calculated. CYP3A4 activities observed with punicalagin at varying concentrations (50,100, 150, 200, 250, and 300 µM) were noted down ([Hidaka et al., 2005]; [Faria et al., 2007]). The concentration at which 50% of the CYP3A4 activity is inhibited (IC50) was noted down. The logarithm values were plotted onto the graphs. Each compound was tested in triplicates. Inhibition curves were plotted from the log values of the concentration of the samples vs. the percentage inhibition calculated.

The nature of data set [1]: Pharmacokinetics of TAC in Wistar rats with and without oral PRE (LC-MS/MS of plasma). Type of data set: in vivo. The protocol: The assessment of TAC in all the samples was done with the help of the LC-MS/MS method. Samples were prepared following the method stated by [Shokati et al. (2015)]. After the preparation of samples, the supernatant was then used further for investigation. An aliquot of 10 μL was injected into the LC-MS/MS system. The column used for analysis was Eclipse XDB C-18 with 100 mm × […] × 3.5 um) with a flow rate of 1.5 ml/min (LC flow split to MS as 0.45 ml/min). The mobile phase used was a mixture of solvent A (acetonitrile) and solvent B (ammonium acetate in water) including 0.1% formic acid in a ratio of 95:05 v/v with a run time of 2 min isocratic (Supplementary Table S2. The compounds were detected by tandem mass spectrometry using electrospray ionization in the positive mode and using ion transitions m/z 821.5 -> 768.0 for TAC (standard) and m/z 721.1 -> 296.1 for ritonavir (internal standard).
Extraction of the drug from the plasma was carried out by the precipitation method. An aliquot of drug-free plasma spiked with 50 μl of ZnSO4 solution and 300 μl of methanol/acetonitrile (50:50, v/v) including IS was added. The mixture was vortex mixed for 30 s and centrifuged at 14,000 g (2000 rpm) at […] for 5 min. The supernatant solution was separated and filtered through a 0.45-µ membrane filter and stored at −20°C until use for analysis. The aforementioned extraction procedure was followed for all plasma samples, calibration curve samples, and QC samples. The optimization of the extraction procedure was required to reduce variation in the area of IS and improve injection to injection reproducibility. The schematic flow chart for the extraction procedure is depicted in Figure 1.
TAC (3 mg/kg) was administered orally to experimental rats (N = 6), and in another group, PRE at a dosage of 200 mg/kg was orally co-administered with TAC dosage of 3 mg/kg in a similar manner to six rats. Both groups were given a volume of 10 ml/kg which was a single dose to all animals. Blood samples were drawn at regular intervals, and the blood plasma concentration of TAC was assessed with the help of the validated LC-MS/MS technique ([Sattler et al., 1992]; [Alanbaki et al., 2019]).
Pretreatment of PRE (200 mg/kg) for a period of six consecutive days was done in group 2, and afterward, on the 7th day, in group 2, PRE (200 mg/kg) was co-administered with TAC (3 mg/kg) to experimental animals (N = 6). In group 1, a single dose of TAC (3 mg/kg) was administered to the animals at a volume of 10 ml/kg body weight.
To study the dose–effect relationship, the Wistar rats were equally distributed into five groups (N = 6 rats/group). PRE at a dose of 100, 200, 400, and 800 mg/kg was given by oral route to the rats, co-administrated with TAC (3 mg/kg). The drug TAC at a dose of 3 mg/kg was given similarly to all the rats in another group, with a volume of 10 ml/kg body weight. Blood was collected from the retro-orbital plexus, and the plasma samples were separated.
The experimental animals were fasted for 12 h before the collection of blood. A total of 300 μL of blood were collected in Eppendorf tubes containing heparinized solution at different time intervals (0, 0.5, 1.0, 2.0, 4.0, 8.0, 12, and 24 h). Plasma was separated and approximately 100 μl of samples was pipetted in the tubes (Figure 2). A total of 300 μl of methanol/acetonitrile (50:50, v/v) and 50 μl of ZnSO4 solution were added, and the solution was vortexed for 30 s and centrifuged at 14,000 g (2000 rpm) for 10 min (Figure 2). All the samples were stored at −20°C until further analysis ([Anlamlert and Sermsappasuk, 2020]).
Pharmacokinetic parameters such as time to reach the maximum concentration (Tmax) and Cmax of TAC were read from the […] (observed blood concentration vs. time profile). AUC0-12 was calculated with the help of a linear trapezoidal rule (Drug and Statistics (DAS) software version 2.1.1). […]

Where [2] appears, read: human, probe kit CYP3A4 substrate metabolised to resorufin (not named), read-out: % Relative Inhibition.

T1 sequence (P08684 whole entry): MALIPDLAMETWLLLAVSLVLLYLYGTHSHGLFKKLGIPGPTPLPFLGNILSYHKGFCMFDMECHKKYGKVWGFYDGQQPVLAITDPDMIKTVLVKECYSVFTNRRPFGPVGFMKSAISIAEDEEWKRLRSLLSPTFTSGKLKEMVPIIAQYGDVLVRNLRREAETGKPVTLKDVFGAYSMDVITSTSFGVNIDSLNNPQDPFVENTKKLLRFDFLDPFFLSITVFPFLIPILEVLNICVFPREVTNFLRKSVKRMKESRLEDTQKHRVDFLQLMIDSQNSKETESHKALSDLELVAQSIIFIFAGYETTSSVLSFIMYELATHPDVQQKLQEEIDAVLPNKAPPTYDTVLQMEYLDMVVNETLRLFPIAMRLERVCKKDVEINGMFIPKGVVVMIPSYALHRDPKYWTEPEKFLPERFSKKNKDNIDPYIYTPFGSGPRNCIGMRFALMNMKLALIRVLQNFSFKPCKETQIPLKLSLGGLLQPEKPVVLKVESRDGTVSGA

As for `O=C1O[C@H]2[C@@H]3OC(=O)c4cc(O)c(O)c(O)c4-c4c(O)c(O)c5oc(=O)c6c(c(O)c(O)c7oc(=O)c4c5c76)-c4c(cc(O)c(O)c4O)C(=O)OC[C@H]3OC(O)[C@@H]2OC(=O)c2cc(O)c(O)c(O)c2-c2c1cc(O)c(O)c2O` (mixture of isomers) [Punicalagin], the inhibition at 50 µM on CYP3A4 (human, probe kit CYP3A4 substrate metabolised to resorufin (not named), Concentration 50 (unit inferred), read-out: % Relative Inhibition) worked out at 89.1%. Also, the inhibition at 100 µM on CYP3A4 (human, probe kit CYP3A4 substrate metabolised to resorufin (not named), Concentration 100 (unit inferred), read-out: % Relative Inhibition) is 76.2%. On CYP3A4 (setting [2]), the inhibition at 150 µM was 64.5% and the inhibition at 200 µM amounted to 52.5%. The inhibition at 250 µM at CYP3A4 (human, probe kit CYP3A4 substrate metabolised to resorufin (not named), Concentration 250 (unit inferred), read-out: % Relative Inhibition) amounted to 35.2%. The inhibition at 300 µM at CYP3A4 (human, probe kit CYP3A4 substrate metabolised to resorufin (not named), Concentration 300 (unit inferred), read-out: % Relative Inhibition) is 11.4%. The CYP3A4 inhibitory activity entry on CYP3A4 (varied concentrations) is reported as “exhibits CYP3A4 inhibitory activity”.
Take `CC(=O)N1CCN(c2ccc(OCC3COC(Cn4ccnc4)(c4ccc(Cl)cc4Cl)O3)cc2)CC1` (centres unmarked) [Ketoconazole]: at CYP3A4 (setting [2]), the inhibition at 150 µM was 72.5% and the inhibition at 200 µM is 55%.
In the case of `C=CC[C@@H]1/C=C(\C)C[C@H](C)C[C@H](OC)[C@H]2O[C@@](O)(C(=O)C(=O)N3CCCC[C@H]3C(=O)O[C@H](/C(C)=C/[C@@H]3CC[C@@H](O)[C@H](OC)C3)[C@H](C)[C@@H](O)CC1=O)[C@H](C)C[C@@H]2OC` [TAC, Tacrolimus], the “Mean plasma concentration of TAC” value in data set [1] (TAC 3 mg/kg co-administered with PRE 800 mg/kg, multiple-dose study) is recorded as “does not increase”. In addition, the “AUC0-12 of TAC” value in data set [1] (TAC 3 mg/kg co-administered with PRE 100, 200, 400, 800 mg/kg) is given as “increased with an increase in PRE doses”. In addition, the “Average plasma concentration of TAC” value in data set [1] (TAC 3 mg/kg co-administered with PRE 100 to 400 mg/kg, multiple-dose study) was “increases with an increase in PRE dose”. Further, in data set [1] (TAC 3 mg/kg co-administered with PRE varied doses), the “t1/2 of TAC” value is listed as “prolonged”. Also, the “AUC0-inf of TAC” value in data set [1] (TAC 3 mg/kg p.o. alone) is on record as 61.91 ± 17.37 ngh/ml. In data set [1] (Wistar, po, TAC 3 mg/kg p.o. alone, rat plasma), this compound gave a Cmax of 9.03 ± 1.21 ng/mL. In data set [1] (Wistar, rat, plasma, po, TAC 3 mg/kg p.o. alone), the time to peak (Tmax) turned out to be 54.6 ± 10.8 min. Besides, the half-life in data set [1] (Wistar, rat, plasma, po, TAC 3 mg/kg p.o. alone, read-out: t1/2 of TAC (converted)) was 7.2 ± 2.4 min.

The term inhibition denotes the share of the control response that was lost under treatment. As a reminder, the Cmax is the maximum level reached in the sampled fluid or tissue. Usually Tmax stands for the time from dosing to the highest level.
